Measurements taken from patent US10414811B2, “Protease-resistant lipidated GLP-1 analogs” (MEDIMMUNE LIMITED, priority 2015, dated 2019).
Like-named read-outs stand apart in the source and are kept apart here. Numbered stars: 1 amine (or outer) side, 2 acyl side, 3 side chain; on linkers, the order of the positions; unused ones are H or OH. Square brackets hold non-standard residues; d marks the D form. Side chains are listed from the residue outwards. Peptide text beside a SMILES is read from it. * marks the point of attachment. C18 diacid = O=C(O)CCCCCCCCCCCCCCCCC(=O)*; γGlu = O=C(O)[C@H](CCC(=O)[*:2])N[*:1]; αMeF = C[C@](N)(Cc1ccccc1)C(=O)O; αMeK = C[C@](N)(CCCCN)C(=O)O; Lauroyl = CCCCCCCCCCCC(=O)*; αMeS = C[C@](N)(CO)C(=O)O; AEEA = NCCOCCOCC(=O)O; Aib = CC(C)(N)C(=O)O

Experiments:
Type in all cases: cell-based
[1] = target: T1, human GLP-1 receptor (GLP-1R) (Homo sapiens, UniProt P43220); assay: cAMP assay, human GLP-1R cells
T1 construct: expressed in transfected cells
Outline: (§1)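 Peptide-stimulated cAMP measured by two-step HTRF after a 30 min room-temperature incubation with receptor-expressing cells (hGLP-1R, hGIPR at 1×10^5 cells/ml; hGCGR at 2×10^5 cells/ml). Duplicate dilutions; EC50 from 4-parameter logistic fit of % Delta F.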

[2] = target: T2, human glucagon receptor (GCGR) (Homo sapiens, UniProt P47871); assay: cAMP assay, human GCGR cells
T2 construct: expressed in transfected cells
Outline: as §1

[3] = target: T3, human glucose-dependent insulinotropic peptide receptor (GIPR) (Homo sapiens, UniProt P48546); assay: cAMP assay, human GIPR cells
T3 construct: expressed in transfected cells
T3 sequence (P48546 22-466): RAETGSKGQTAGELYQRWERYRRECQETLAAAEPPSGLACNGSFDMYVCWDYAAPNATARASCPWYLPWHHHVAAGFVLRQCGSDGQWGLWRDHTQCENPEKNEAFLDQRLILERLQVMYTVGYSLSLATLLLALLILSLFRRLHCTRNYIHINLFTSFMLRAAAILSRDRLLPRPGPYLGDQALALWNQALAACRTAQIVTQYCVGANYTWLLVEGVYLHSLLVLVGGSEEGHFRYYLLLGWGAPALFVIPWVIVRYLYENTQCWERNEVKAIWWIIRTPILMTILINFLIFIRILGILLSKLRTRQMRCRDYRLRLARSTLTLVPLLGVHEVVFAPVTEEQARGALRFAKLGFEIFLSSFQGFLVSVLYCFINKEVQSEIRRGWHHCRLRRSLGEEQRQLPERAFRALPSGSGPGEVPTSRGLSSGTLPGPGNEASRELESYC
Outline: as §1

GLP-1R (INS1e assay) = target: T4, GLP-1R (INS1e assay) (Rattus norvegicus, UniProt P32301); assay: INS1e assay, cAMP activity at GLP-1R
T4 construct: endogenous in cells; host or cells: INS-1E cells
T4 sequence (P32301 22-463): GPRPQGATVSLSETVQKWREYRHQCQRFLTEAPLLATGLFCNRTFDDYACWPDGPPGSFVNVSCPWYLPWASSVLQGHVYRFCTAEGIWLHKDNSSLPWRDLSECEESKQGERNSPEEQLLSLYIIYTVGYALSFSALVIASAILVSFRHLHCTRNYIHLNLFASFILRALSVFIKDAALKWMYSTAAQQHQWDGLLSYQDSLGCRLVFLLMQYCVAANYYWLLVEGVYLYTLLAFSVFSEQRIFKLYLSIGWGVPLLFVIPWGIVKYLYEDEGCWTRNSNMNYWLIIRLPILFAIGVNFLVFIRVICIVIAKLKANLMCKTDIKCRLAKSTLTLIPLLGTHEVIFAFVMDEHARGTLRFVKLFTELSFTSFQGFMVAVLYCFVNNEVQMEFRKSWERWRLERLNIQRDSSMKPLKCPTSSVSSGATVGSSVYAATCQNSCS
Outline: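 It pairs cAMP-d2 acceptor with anti-cAMP cryptate donor, both prepared 1/20 in conjugate/lysis buffer, applied as a two-step protocol.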

[4] = cAMP assay, first determination (n1), read-out: Primary assay EC50 GLP-1R n1
[5] = cAMP assay, first determination (n1), read-out: Primary assay EC50 Gluc-R (n1)
[6] = cAMP assay, second determination (n2), read-out: Primary assay EC50 Gluc-R (n2)
[7] = cAMP assay, first determination (n1), read-out: Primary assay EC50 GIP-R (n1)
[8] = cAMP assay, second determination (n2), read-out: Primary assay EC50 GIP-R (n2)
[9] = mono-lipidated peptides, mean of n1 and n2, read-out: INS1e assay EC50 Mean pM GLP-1R
[10] = mono-lipidated peptides, replicate n1, read-out: INS1e assay EC50 GLP-1R n1
[11] = mono-lipidated peptides, replicate n2, read-out: INS1e assay EC50 GLP-1R n2
[12] = cAMP assay, second determination (n2), read-out: Primary assay EC50 GLP-1R n2
[13] = mean of n1 and n2, read-out: Mean pM GLP-1R

T1 sequence (P43220 24-463): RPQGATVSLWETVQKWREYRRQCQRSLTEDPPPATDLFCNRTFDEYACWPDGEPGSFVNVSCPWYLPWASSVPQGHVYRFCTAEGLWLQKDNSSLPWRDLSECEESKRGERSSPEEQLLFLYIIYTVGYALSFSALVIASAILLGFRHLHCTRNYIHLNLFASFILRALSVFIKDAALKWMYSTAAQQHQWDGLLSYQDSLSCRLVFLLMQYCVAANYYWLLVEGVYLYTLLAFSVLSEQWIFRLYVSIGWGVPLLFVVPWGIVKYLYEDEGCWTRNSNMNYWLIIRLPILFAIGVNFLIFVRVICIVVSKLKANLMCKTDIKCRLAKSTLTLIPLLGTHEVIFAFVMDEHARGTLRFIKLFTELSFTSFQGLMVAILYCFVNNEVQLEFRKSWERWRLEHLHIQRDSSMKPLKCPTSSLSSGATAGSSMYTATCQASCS
T2 sequence (P47871 26-477): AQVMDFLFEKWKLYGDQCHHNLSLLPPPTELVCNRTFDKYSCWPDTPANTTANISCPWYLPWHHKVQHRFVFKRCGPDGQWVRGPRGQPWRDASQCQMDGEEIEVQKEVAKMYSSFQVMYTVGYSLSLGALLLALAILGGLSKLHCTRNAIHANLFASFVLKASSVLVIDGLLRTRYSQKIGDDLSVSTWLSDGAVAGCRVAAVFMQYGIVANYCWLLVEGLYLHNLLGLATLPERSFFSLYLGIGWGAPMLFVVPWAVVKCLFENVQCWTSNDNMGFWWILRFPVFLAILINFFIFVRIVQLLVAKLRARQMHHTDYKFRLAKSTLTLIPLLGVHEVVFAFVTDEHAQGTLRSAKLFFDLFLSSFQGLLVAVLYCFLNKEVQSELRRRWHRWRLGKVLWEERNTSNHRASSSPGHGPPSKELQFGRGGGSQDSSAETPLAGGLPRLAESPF

| Compound | EC50 [1, 4] | EC50 [2, 5] | EC50 [2, 6] | EC50 [3, 7] | EC50 [3, 8] | EC50 (GLP-1R (INS1e assay); [9]) | EC50 (GLP-1R (INS1e assay); [10]) | EC50 (GLP-1R (INS1e assay); [11]) | EC50 [1, 12] | EC50 [1, 13] | further results |
| --- | --- | --- | --- | --- | --- | --- | --- | --- | --- | --- | --- |
| CC[C@H](C)[C@H](NC(=O)[C@](C)(Cc1ccccc1)NC(=O)[C@H](CCC(=O)O)NC(=O)[C@](C)(CCCCN)NC(=O)[C@H](C)NC(=O)[C@H](C)NC(=O)[C@H](CCC(=O)O)NC(=O)CNC(=O)[C@H](CCC(=O)O)NC(=O)[C@H](CC(C)C)NC(=O)[C@](C)(Cc1ccccc1)NC(=O)[C@H](CO)NC(=O)[C@](C)(CO)NC(=O)[C@@H](NC(=O)[C@H](CC(=O)O)NC(=O)[C@H](CO)NC(=O)[C@@H](NC(=O)[C@](C)(Cc1ccccc1)NC(=O)[C@H](CO)NC(=O)CNC(=O)[C@H](CCC(=O)O)NC(=O)C(C)(C)NC(=O)[C@@H](N)Cc1c[nH]cn1)[C@@H](C)O)C(C)C)C(=O)N[C@@H](C)C(=O)N[C@@](C)(Cc1ccccc1)C(=O)N[C@H](C(=O)N[C@H](C(=O)N[C@@](C)(CCCCN)C(=O)N[C@@H](CCCCNC(=O)COCCOCCNC(=O)COCCOCCNC(=O)CC[C@H](NC(=O)CCCCCCCCCCCCCCCCC(=O)O)C(=O)O)C(=O)NCC(N)=O)C(C)C)C(C)C [compound 100] (H-H[Aib]EGS[αMeF]TSDV[αMeS]S[αMeF]LEGEAA[αMeK]E[αMeF]IA[αMeF]VV[αMeK]K([AEEA-AEEA-γGlu-C18 diacid])G-NH2) | 16 pM | ≥ 25 nM | ≥ 24.9 nM | ≥ 25 nM | ≥ 24.9 nM | 822 pM | 233 pM | 1410 pM |  |  |  |
| CC[C@H](C)[C@H](NC(=O)[C@](C)(Cc1ccccc1)NC(=O)[C@H](CCC(=O)O)NC(=O)[C@H](CCCCNC(=O)CCCCCNC(=O)CCCCCCCCCCCOc1ccc(C(=O)O)cc1)NC(=O)[C@H](C)NC(=O)[C@H](C)NC(=O)[C@H](CCC(=O)O)NC(=O)CNC(=O)[C@H](CCC(=O)O)NC(=O)[C@H](CC(C)C)NC(=O)[C@](C)(Cc1ccccc1)NC(=O)[C@H](CO)NC(=O)[C@](C)(CO)NC(=O)[C@@H](NC(=O)[C@H](CC(=O)O)NC(=O)[C@H](CO)NC(=O)[C@@H](NC(=O)[C@](C)(Cc1ccccc1)NC(=O)[C@H](CO)NC(=O)CNC(=O)[C@H](CCC(=O)O)NC(=O)C(C)(C)NC(=O)[C@@H](N)Cc1c[nH]cn1)[C@@H](C)O)C(C)C)C(=O)N[C@@H](C)C(=O)N[C@@](C)(Cc1ccccc1)C(=O)N[C@H](C(=O)N[C@H](C(=O)N[C@@](C)(CCCCN)C(=O)NCC(=O)NCC(N)=O)C(C)C)C(C)C [compound 140] | 5.9 pM |  |  |  |  | 30 pM | 43.2 pM | 16.7 pM | 3.9 pM | 4.9 pM | EC50 ([2]; Primary assay EC50 Gluc-R (n1), cAMP assay, first determination (n1)): ≥ 27 nM; EC50 ([2]; read-out: Primary assay EC50 Gluc-R (n2), cAMP assay, second determination (n2)): ≥ 27 nM; EC50 ([3]; Primary assay EC50 GIP-R (n1), cAMP assay, first determination (n1)): ≥ 27 nM; EC50 ([3]; read-out: Primary assay EC50 GIP-R (n2), cAMP assay, second determination (n2)): ≥ 27 nM |
| CCCCCCCCCCCC(=O)NCCOCCOCC(=O)NCCCC[C@H](NC(=O)[C@H](C)NC(=O)[C@H](C)NC(=O)[C@H](CCC(=O)O)NC(=O)CNC(=O)[C@H](CCC(=O)O)NC(=O)[C@H](CC(C)C)NC(=O)[C@](C)(Cc1ccccc1)NC(=O)[C@H](CO)NC(=O)[C@](C)(CO)NC(=O)[C@@H](NC(=O)[C@H](CC(=O)O)NC(=O)[C@H](CO)NC(=O)[C@@H](NC(=O)[C@](C)(Cc1ccccc1)NC(=O)[C@H](CO)NC(=O)CNC(=O)[C@H](CCC(=O)O)NC(=O)C(C)(C)NC(=O)[C@@H](N)Cc1c[nH]cn1)[C@@H](C)O)C(C)C)C(=O)N[C@@H](CCC(=O)O)C(=O)N[C@@](C)(Cc1ccccc1)C(=O)N[C@H](C(=O)N[C@@H](C)C(=O)N[C@@](C)(Cc1ccccc1)C(=O)N[C@H](C(=O)N[C@H](C(=O)N[C@@](C)(CCCCN)C(=O)NCC(=O)NCC(N)=O)C(C)C)C(C)C)[C@@H](C)CC [compound 134] | 7 pM | ≥ 28 nM | ≥ 28 nM | ≥ 28 nM | ≥ 28 nM | 123 pM | 168 pM | 77.6 pM | 4.9 pM | 6 pM |  |
| CCCCCCCCCCCC(=O)N[C@@H](CCC(=O)NCCOCCOCC(=O)NCCOCCOCC(=O)NCCCC[C@H](NC(=O)[C@H](C)NC(=O)[C@@H](NC(=O)[C@H](Cc1ccc(OC)cc1)NC(=O)[C@H](CCC(=O)O)NC(=O)[C@](C)(CCCCN)NC(=O)[C@H](C)NC(=O)[C@H](C)NC(=O)[C@H](CCC(=O)O)NC(=O)CNC(=O)[C@H](CCC(=O)O)NC(=O)[C@H](CC(C)C)NC(=O)[C@H](CCCCNC(=O)COCCOCCNC(=O)COCCOCCNC(=O)CC[C@H](NC(=O)CCCCCCCCCCC)C(=O)O)NC(=O)[C@H](CO)NC(=O)[C@](C)(CO)NC(=O)[C@@H](NC(=O)[C@H](CC(=O)O)NC(=O)[C@H](CO)NC(=O)[C@@H](NC(=O)[C@](C)(Cc1ccccc1)NC(=O)[C@H](CO)NC(=O)CNC(=O)[C@H](CCC(=O)O)NC(=O)C(C)(C)NC(=O)[C@@H](N)Cc1c[nH]cn1)[C@@H](C)O)C(C)C)[C@@H](C)CC)C(=O)N[C@H](C(=O)N[C@H](C(=O)N[C@@H](CCC(=O)O)C(=O)NCC(=O)NCC(N)=O)C(C)C)C(C)C)C(=O)O [compound 406] (H-H[Aib]EGS[αMeF]TSDV[αMeS]SK([AEEA-AEEA-γGlu-Lauroyl])LEGEAA[αMeK]EY(Me)IAK([AEEA-AEEA-γGlu-Lauroyl])VVEGG-NH2; N-terminus assumed) |  |  |  |  |  |  |  |  |  |  | EC50 ([1]; bis-lipidated peptides, replicate n1, read-out: Primary assay EC50 GLP-1R n1): 2.19 pM; EC50 ([1]; bis-lipidated peptides, replicate n2, read-out: Primary assay EC50 GLP-1R n2): 2.31 pM; EC50 ([2]; bis-lipidated peptides, first replicate, read-out: Primary assay EC50 Gluc-R (n1)): ≥ 21.5 nM; EC50 ([3]; bis-lipidated peptides, first replicate, read-out: Primary assay EC50 GIP-R (n1)): ≥ 21.5 nM; EC50 (GLP-1R (INS1e assay); bis-lipidated peptides, mean of n1 and n2, read-out: INS1e assay EC50 Mean pM GLP-1R): 94 pM; EC50 (GLP-1R (INS1e assay); bis-lipidated peptides, replicate n1, read-out: INS1e assay EC50 GLP-1R n1): 101 pM; EC50 (GLP-1R (INS1e assay); bis-lipidated peptides, replicate n2, read-out: INS1e assay EC50 GLP-1R n2): 87.2 pM |
| CCCCCCCCCCCC(=O)NCCOCCOCC(=O)NCCOCCOCC(=O)NCCCC[C@H](NC(=O)[C@@H](NC(=O)[C@@H](NC(=O)[C@](C)(Cc1ccccc1)NC(=O)[C@H](C)NC(=O)[C@@H](NC(=O)[C@](C)(Cc1ccccc1)NC(=O)[C@H](CCC(=O)O)NC(=O)[C@](C)(CCCCN)NC(=O)[C@H](C)NC(=O)[C@H](C)NC(=O)[C@H](CCC(=O)O)NC(=O)CNC(=O)[C@H](CCC(=O)O)NC(=O)[C@H](CC(C)C)NC(=O)[C@](C)(Cc1ccccc1)NC(=O)[C@H](CO)NC(=O)[C@](C)(CO)NC(=O)[C@@H](NC(=O)[C@H](CC(=O)O)NC(=O)[C@H](CO)NC(=O)[C@@H](NC(=O)[C@](C)(Cc1ccccc1)NC(=O)[C@H](CO)NC(=O)CNC(=O)[C@H](CCC(=O)O)NC(=O)C(C)(C)NC(=O)[C@@H](N)Cc1c[nH]cn1)[C@@H](C)O)C(C)C)[C@@H](C)CC)C(C)C)C(C)C)C(=O)NCC(=O)NCC(N)=O [compound 171] | 2.5 pM | ≥ 27 nM | ≥ 27 nM | ≥ 27 nM | ≥ 27 nM | 128 pM | 81.7 pM | 175 pM | 1.2 pM | 1.9 pM |  |
